# Measurements published in patent publication US9096629B2, “Process of forming iron hydroxypyrone compounds” (Iron Therapeutics Holdings AG, priority 2011, dated 2015).
# Assays:
# [1] = hydrated ion in aqueous solution; cited from earlier work
# [2] = Solubility in water / aqueous solution; format: physicochemical
# [3] = Stability of maltol in hot aqueous solution; format: physicochemical; conditions: near boiling temperatures
smiles,measurement,setting,value
[Cl][Fe]([Cl])[Cl] [Ferric chloride],Ka,[1],7×10^−3
Cc1occc(=O)c1[O-].Cc1occc(=O)c1[O-].Cc1occc(=O)c1[O-].[Fe+3] [ferric trimaltol],maximum solubility in water,"[2]; water, about 25° C.",about 3.5 g/100 ml water
[Cl][Fe][Cl] [ferrous chloride],Ka,[1],5×10^−9
"Cc1occc(=O)c1O [maltol, 3-hydroxy-2-methyl-4-pyrone]",stability in aqueous solution,[3],stable
same,solubility in aqueous alkali hydroxide solutions,[2]; aqueous alkali hydroxide solutions,very soluble
same,solubility on heating,[2]; heating to near boiling temperatures,10 g/100 ml
same,solubility at low pH,[2]; low pH values of iron chloride solutions (pH 1-5),virtually insoluble
same,solubility on heating,"[2]; water, heating to temperatures above 60° C.",up to 10 g/100 ml
same,maximum aqueous solubility,"[2]; water, pH range 6-8, 20° C.",1 g/100 ml
